In patent publication US9877962B2, “Piperazinyl derivatives for the treatment of cancer” (priority 2011, dated 2018):
Where two headings read alike, the source gives them in different places.

How the values were obtained:
Type in all cases: cell-based, human
MCF-7 = test: Cytotoxicity test (ViaLight Plus cell proliferation) on MCF-7; conditions: 72 hours' incubation, cell viability vs 0.5% DMSO control
Source text: (§1) The effects of the compounds of the invention on the proliferation of cancer cells were studied on different human cancer cell lines of different tissue origin (MCF-7: breast cancer, MCF-7/adr adriamycin-resistant breast cancer, HL-60: acute promyelocytic leukaemia, HL-60/R10: doxorubicin-resistant acute promyelocytic leukaemia, HT29: colon adenocarcinoma, Mia Paca2: pancreatic tumour, Panc-1: pancreatic exocrine tumour, SK-OV-3: cisplatin- and adriamycin resistant ovarian cancer). The cancer cells used for this study were incubated at 37° C. in the presence of one of the compounds of the invention added to the culture medium at different concentrations.
(§2) The cancer cell lines were obtained from ATCC (American Type Culture Collection) for MCF-7, from Hôpital de la Pitié Salpetrière for MCF-7/adr and from Oncodesign (Dijon, France) for HL-60, HL-60/R10, HT29, MiaPaCa2, Panc-1 and SK-OV-3. They were cultured in RPMI 1640 medium containing 2 mM L-Glutamine supplemented with 10% foetal calf serum (Lonza; Verviers, Belgium). All the cell lines were held in culture at 37° C. in a humid atmosphere containing 5% CO2. Cell proliferation was assessed using the ViaLight® Plus Assay Kit (Lonza; Verviers, Belgium) following the manufacturer's instructions. The cells were seeded in 96-well culture plates compatible with luminescence read-off (white plates with transparent bottom) in a proportion of 5 000 to 10 000 cells per well in 100 μl of culture medium. After a pre-incubation time of 24 hours at 37° C., the compounds of the invention dissolved in dimethylsulfoxide (DMSO) were individually added to each well in a proportion of 0.5 μl per well. After 72 hours' incubation at 37° C. in a humid atmosphere containing 5% CO2, 50 μl of lysis buffer were added to each well and 15 minutes later 100 μl of ATP measuring agent were added. The plates were read under a luminometer to evaluate cell viability. The data obtained was processed by computer to obtain the EC50 value i.e. the concentration value of each of the compounds which induces 50% cell viability compared with a control value (0.5% DMSO alone).

MCF-7/adr = test: Cytotoxicity test (ViaLight Plus cell proliferation) on MCF-7/adr; conditions: adriamycin-resistant line, 72 hours' incubation, cell viability vs 0.5% DMSO control
Source text: as §1, §2

HL-60/R10 = test: Cytotoxicity test (ViaLight Plus cell proliferation) on HL-60/R10; conditions: doxorubicin-resistant line, 72 hours' incubation, cell viability vs 0.5% DMSO control, read-out: EC50 HL60/R10; for IC50: Homo sapiens
Source text: as §1, §2

HL-60 = test: Cytotoxicity test (ViaLight Plus cell proliferation) on HL-60; conditions: 72 hours' incubation, cell viability vs 0.5% DMSO control; for IC50: Homo sapiens, read-out: EC50 HL-60
Source text: as §1, §2

Row | Compound | EC50 (MCF-7/adr) | EC50 (HL-60/R10) | EC50 (HL-60) | other results
1 | CC(C)[C@H]1CN(C(=O)C(c2ccc(F)cc2)N(C(=O)CCl)c2ccc(Oc3ccccc3)cc2)CCN1 (single isomer, unassigned) [I-3 dia1] | 55 nM | 15 nM | 1310 nM | EC50 (MCF-7): 927 nM
2 | CC(C)[C@@H]1CN(C(=O)C(c2ccc(F)cc2)N(C(=O)CCl)c2ccc(Oc3ccccc3)cc2)CCN1 (single isomer, unassigned) [I-4 dia1] | 13 nM | 4 nM | 648 nM | EC50 (MCF-7): 315 nM
3 | CC(C)[C@@H]1CN(C(=O)C(c2ccc(F)cc2)N(C(=O)CCl)c2ccc(Oc3ccccc3)cc2)CCN1 (single isomer, unassigned) [I-4 dia2] | 166 nM | 62 nM | 1320 nM | EC50 (MCF-7): 863 nM
4 | Cc1cc(Oc2ccccc2)ccc1N(C(=O)CCl)C(C(=O)N1CCN[C@@H](C(C)C)C1)c1ccc(F)cc1 (single isomer, unassigned) [I-7 dia1] | 618 nM | 604 nM | – | IC50 (MCF-7; Homo sapiens, MCF7, 72 h, read-out: EC50 MCF-7): 2500 nM; IC50 (HL-60; HL-60, 72 h): 2500 nM
5 | CC[C@@H]1CN(C(=O)C(c2ccc(F)cc2)N(C(=O)CCl)c2ccc(Oc3ccccc3)cc2C)CCN1C(=O)OC(C)(C)C (single isomer, unassigned; dia1) [I-16 dia1] | 527 nM | 450 nM | 1480 nM | –
6 | CC[C@H]1CN(C(=O)C(c2ccc(F)cc2)N(C(=O)CCl)c2ccc(Oc3ccccc3)cc2C)CCN1 (single isomer, unassigned; dia1) [I-17 dia1] | 898 nM | 353 nM | 2310 nM | –
7 | CC[C@@H]1CN(C(=O)C(c2ccc(F)cc2)N(C(=O)CCl)c2ccc(Oc3ccccc3)cc2C)CCN1 (single isomer, unassigned; dia1) [I-18 dia1] | 485 nM | 140 nM | 1600 nM | –
8 | CC[C@H]1CN(C(=O)C(c2ccc(F)cc2)N(C(=O)CCl)c2ccc(Oc3ccccc3)cc2)CCN1C(=O)OC(C)(C)C (single isomer, unassigned; dia1) [I-19 dia1] | 128 nM | 97 nM | 516 nM | –
9 | Cc1cc(CCC(C)(C)C)ccc1N(C(=O)CCl)C(C(=O)N1CCNC(C(C)C)C1)c1ccc(F)cc1 (single isomer, unassigned; dia1) [I-25 dia1] | – | 43 nM | 1120 nM | –
10 | Cc1cc(Oc2ccccc2)ccc1N(C(=O)CCl)C(C(=O)N1CCN(C(=O)OC(C)(C)C)[C@H](C)C1)c1cccs1 (single isomer, unassigned; dia1) [I-40 dia1] | 371 nM | 248 nM | 2130 nM | –
11 | Cc1cc(Oc2ccccc2)ccc1N(C(=O)CCl)C(C(=O)N1CCN[C@@H](C(C)C)C1)c1cccs1 (single isomer, unassigned; dia1) [I-46 dia1] | 544 nM | 318 nM | – | –
12 | Cc1cc(Oc2ccccc2)ccc1N(C(=O)CCl)C(C(=O)N1CCN[C@@H](CC(C)C)C1)c1cccs1 (single isomer, unassigned; dia1) [I-47 dia1] | – | 54 nM | 936 nM | –
13 | CC(C)[C@H]1CN(C(=O)C(c2cccs2)N(C(=O)CCl)c2cccc(C(F)(F)F)c2)CCN1 (single isomer, unassigned; dia1) [I-50 dia1] | – | 259 nM | 2100 nM | –
14 | CC(C)C[C@H]1CN(C(=O)C(c2cccs2)N(C(=O)CCl)c2ccc(Oc3ccccc3)cc2)CCN1 (single isomer, unassigned; dia1) [I-51 dia1] | – | 96 nM | 145 nM | –
15 | Cc1cc(Cl)ccc1N(C(=O)CCl)C(C(=O)N1CCN[C@@H](C(C)C)C1)c1cccs1 (single isomer, unassigned; dia1) [I-52 dia1] | – | 194 nM | – | –
16 | CC[C@@H]1CN(C(=O)C(c2ccc(F)cc2)N(C(=O)CCl)c2ccc(Oc3ccccc3)cc2C)CCN1C(=O)OC(C)(C)C (single isomer, unassigned; dia2) [I-16 dia2] | 443 nM | 317 nM | 1910 nM | –
17 | CC[C@H]1CN(C(=O)C(c2ccc(F)cc2)N(C(=O)CCl)c2ccc(Oc3ccccc3)cc2)CCN1C(=O)OC(C)(C)C (single isomer, unassigned; dia2) [I-19 dia2] | 35 nM | 24 nM | 453 nM | –
18 | CC[C@@H]1CN(C(=O)C(c2ccc(F)cc2)N(C(=O)CCl)c2ccc(Oc3ccccc3)cc2)CCN1C(=O)OC(C)(C)C (single isomer, unassigned; dia2) [I-20 dia2] | 165 nM | 139 nM | 1480 nM | –

Row | Compound | EC50 (MCF-7/adr) | EC50 (HL-60/R10) | EC50 (HL-60) | other results
19 | Cc1cc(CCC(C)(C)C)ccc1N(C(=O)CCl)C(C(=O)N1CCNC(C(C)C)C1)c1ccc(F)cc1 (single isomer, unassigned; dia2) [I-25 dia2] | – | 103 nM | 819 nM | –
20 | Cc1cc(Oc2ccccc2)ccc1N(C(=O)CCl)C(C(=O)N1CCN(C(=O)OC(C)(C)C)[C@H](C)C1)c1cccs1 (single isomer, unassigned; dia2) [I-40 dia2] | 827 nM | 487 nM | – | –
21 | Cc1cc(Oc2ccccc2)ccc1N(C(=O)CCl)C(C(=O)N1CCN[C@@H](CC(C)C)C1)c1cccs1 (single isomer, unassigned; dia2) [I-47 dia2] | – | 8 nM | 849 nM | –
22 | CC(C)C[C@H]1CN(C(=O)C(c2cccs2)N(C(=O)CCl)c2ccc(Oc3ccccc3)cc2)CCN1 (single isomer, unassigned; dia2) [I-51 dia2] | – | 1 nM | 3 nM | –
23 | Cc1cc(Cl)ccc1N(C(=O)CCl)C(C(=O)N1CCN[C@@H](C(C)C)C1)c1cccs1 (single isomer, unassigned; dia2) [I-52 dia2] | – | 24 nM | 223 nM | –
24 | Cc1cc(Oc2ccccc2)ccc1N(C(=O)CCl)C(C(=O)N1CCN(C(=O)OC(C)(C)C)C(C(=O)NCc2ccccc2)C1)c1cccs1 (single isomer, unassigned; dia2) [I-53 dia2] | – | 305 nM | 547 nM | –
25 | Cc1cc(CCC(C)(C)C)ccc1N(C(=O)CCl)C(C(=O)N1CCN[C@@H](C(C)C)C1)c1ccc(F)cc1 (stereo partly shown) [Example I-23] | – | – | – | IC50 (HL-60/R10; HL-60, 72 h): 12 nM; IC50 (HL-60; HL-60, 72 h): 559 nM
26 | Cc1cc(CCC(C)(C)C)ccc1N(C(=O)CCl)C(C(=O)N1C[C@@H](C)N[C@@H](C)C1)c1ccc(F)cc1 (stereo partly shown) [Example I-24] | – | – | – | IC50 (HL-60/R10; HL-60, 72 h): 15 nM; IC50 (HL-60; HL-60, 72 h): 626 nM
27 | CC1CN(C(=O)C(c2cccs2)N(C(=O)CCl)c2cccc(C(F)(F)F)c2)CC(C)N1C(=O)OC(C)(C)C (stereo not shown) [Example I-28] | – | – | – | IC50 (HL-60/R10; HL-60, 72 h): 206 nM; IC50 (HL-60; HL-60, 72 h): 623 nM
28 | Cc1cc(Oc2ccccc2)ccc1N(C(=O)CCl)C(C(=O)N1CCN2CCC[C@H]2C1)c1cccs1 (stereo partly shown) [Example I-33] | 394 nM | 157 nM | – | –
29 | C[C@@H]1CN(C(=O)[C@H](c2cccs2)N(C(=O)CCl)c2ccc(Oc3ccccc3)cc2)C[C@H](C)N1 [Example I-44] | – | 7 nM | 215 nM | –
30 | Cc1cc(Oc2ccccc2)ccc1N(C(=O)CCl)C(C(=O)N1CCNC(c2ccccc2)C1)c1cccs1 (stereo not shown) [Example I-45] | – | – | – | IC50 (HL-60/R10; HL-60, 72 h): 17 nM; IC50 (HL-60; HL-60, 72 h): 2140 nM
31 | Cc1cc(Oc2ccccc2)ccc1N(C(=O)CCl)C(C(=O)N1CCNC(Cc2ccccc2)C1)c1cccs1 (stereo not shown) [Example I-48] | – | – | – | IC50 (HL-60/R10; HL-60, 72 h): 10 nM; IC50 (HL-60; HL-60, 72 h): 1990 nM
32 | Cc1cc(Cl)ccc1N(C(=O)CCl)C(C(=O)N1C[C@@H](C)N[C@@H](C)C1)c1cccs1 (stereo partly shown) [Example I-49] | – | – | – | IC50 (HL-60/R10; HL-60, 72 h): 321 nM; IC50 (HL-60; HL-60, 72 h): 1170 nM
33 | Cc1cc(Oc2ccccc2)ccc1N(C(=O)CCl)C(C(=O)N1CCNCC1)c1ccc(F)cc1 (stereo not shown) [reference compound] | – | – | – | IC50 (HL-60/R10; HL-60, 72 h): 226 nM; IC50 (HL-60; HL-60, 72 h): 1630 nM
34 | C[C@@H]1CNCCN1C(=O)C(c1cccs1)N(C(=O)CCl)c1ccc(Oc2ccccc2)cc1 (stereo partly shown) [reference compound] | – | – | – | IC50 (HL-60/R10; HL-60): 38 nM; IC50 (HL-60; HL-60): 311 nM
35 | tert-butyl ester of 4-[2-[(2-chloro-acetyl)-(4-phenoxy-phenyl)-amino]-2-(4-fluoro-phenyl)-acetyl]-(S)-2-isopropyl-piperazine-1-carboxylic acid [I-1 dia1] | 338 nM | – | 1800 nM | –
36 | tert-butyl ester of 4-[-2-[(2-chloro-acetyl)-(4-phenoxy-phenyl)-amino]-2-(4-fluoro-phenyl)-acetyl]-(R)-2-isopropyl-piperazine-1-carboxylic acid [I-2 dia2] | 645 nM | 472 nM | 2060 nM | –
